Broadly, the solubility is the dissolved amount per volume that the medium holds.

Here are results for two compounds from patent US7611630B2, “Method and device for evaluation of pharmaceutical compositions” (Bend Research, Inc., priority 2004, dated 2009).

The nature of data set [1]: partition coefficient between organic fluid and water, from solubility ratio. An excerpt: [formula] where m is the rate at which drug is transported across the membrane (g/sec), Vp is the volume of the permeate solution (cm^3), [D]p is the concentration of drug in the permeate solution (g/cm^3), t is the time (sec), am is the membrane area (cm^2), Pov is the overall permeability coefficient (cm/sec), [Ddissolved]f is the concentration of dissolved drug in the feed solution (g/cm^3), and kp,mem is the partition coefficient of drug between the organic fluid and water, which is defined as the ratio of (1) the concentration of drug in the organic fluid, and (2) the concentration of dissolved neutral drug in the aqueous feed solution when the two solutions are at equilibrium. The partition coefficient can be estimated from the ratio of (1) the solubility of drug in the organic fluid and (2) the solubility of the dissolved drug in the aqueous feed solution.
The organic fluid consisted of 4 mL of decanol, which was added to the permeate reservoir. […] An overhead stirrer was used to stir the decanol permeate solution at 100 rpm.
The organic fluid used in these tests consisted of 5 mL of 20 wt % decanol in decane.

Data set [2] can be described thus: physchem.
For data set [3] the following is noted: not told, 120 μg/mL.

Read-outs that look alike come from different tables or passages of the source. Bounds are passed on as bounds.

For the compound `O=C(N[C@@H](Cc1ccccc1)[C@@H](O)C(=O)N1C[C@@H](O)[C@@H](O)C1)c1cc2cc(Cl)ccc2[nH]1` [Drug 2, 5-chloro-1H-indole-2-carboxylic acid [(1S)-benzyl-(2R)-hydroxy-3-((3R,4S)-dihydroxy-pyrrolidin-1-yl-)-3-oxypropyl]amide], the “partition coefficient between the organic fluid and water” value in data set [1] is “about 12”.
In the case of `CC[C@@H]1C[C@H](N(Cc2cc(C(F)(F)F)cc(C(F)(F)F)c2)C(C)=O)c2cc(C(F)(F)F)ccc2N1C(=O)OC(C)C` [Drug 3, [2R,4S]4-[acetyl-(3,5-bis-trifluoromethyl-benzyl)-amino]-2-ethyl-6-trifluoromethyl-3,4-dihydro-2H-quinoline-1-carboxylic acid isopropyl ester], the solubility in data set [2] (organic solvent or mixture, solubility in organic fluid) was > 25 mg/mL; in data set [2] (water, aqueous solubility (solubility in water)) it was < 0.0001 mg/mL. Besides, the “Maximum Flux of Drug 3” value in data set [3] was 0.06 μg/cm^2-min. Besides, the “partition coefficient between the organic fluid and water” value in data set [1] (20 wt % decanol in decane / water) is “greater than 250,000”.
